{"source": "patent US20050070468A1", "about": "“Use of fk506 and analogues for treating allergic diseases” (SUCAMPO AG, priority 2001, published 2005)", "system": "Patients with allergic conjunctivitis", "experiment": "Antigen instillation into the eye of patients with allergic conjunctivitis; itchiness of the eye scored in 9 levels, improvement rate versus base line", "format": "in vivo, human", "conditions": "for improvement (%) of group with pre-administration: once a day for one week, antigen given 16 hr after last instillation; for improvement (%) of group with pre-administration / improvement (%) of group without pre-administration: itchiness 3 min later, proportion of patients with at least 1 point lower itchiness than base line; for improvement (%) of group without pre-administration: single instillation, antigen given 8 hr after instillation", "method": "Patients with allergic conjunctivitis (3 groups, 30 patients per group) were instilled with an antigen into the eye. Three minutes later, itchiness of the eye was evaluated in 9 levels (0, 0.5, 1, 1.5, 2, 2.5, 3, 3.5, 4), and the average value (base line group) of itchiness was determined. A specific antigen was determined for each patient. […] At least one week was allowed to lapse from the test of Method 1, and FK506 eye drop (suspension) [0.03%, 0.06% or 0.1%] was instilled into the eye of the patients. At 8 hr after the instillation of the eye drop, the antigen was given. Three minutes later, itchiness of the eye was evaluated in the same manner as in Method 1, and the average value (without pre-administration) of itchiness was determined. […] At least one week was allowed to lapse from the test of Method 2, and FK506 eye drop was instilled into the eye of the patients once a day for one week. At 16 hr after the last instillation of the eye drop, the antigen was given. Three minutes later, itchiness of the eye was evaluated in the same manner as in Method 1, and the average value (with pre-administration) of itchiness was determined.", "data": [{"smiles": "C=CC[C@@H]1/C=C(\\C)C[C@H](C)C[C@H](OC)[C@H]2O[C@@](O)(C(=O)C(=O)N3CCCC[C@H]3C(=O)O[C@H](/C(C)=C/[C@@H]3CC[C@@H](O)[C@H](OC)C3)[C@H](C)[C@@H](O)CC1=O)[C@H](C)C[C@@H]2OC", "note": "[FK506, 17-allyl-1,14-dihydroxy-12-[2-(4-hydroxy-3-methoxycyclohexyl)-1-methylvinyl]-23,25-dimethoxy-13,19,21,27-tetramethyl-11,28-dioxa-4-azatricyclo-[22.3.1.0^4,9]octacos-18-ene-2,3,10,16-tetraone]", "values": [{"measurement": "improvement rate of the group with pre-administration after 16 hr compared with the group without pre-administration after 8 hr", "setting": "0.1% concentration groups", "value": "markedly higher"}, {"measurement": "improvement (%) of group with pre-administration", "setting": "FK506 eye drop 0.03%", "value": 61.54, "unit": "%"}, {"measurement": "improvement (%) of group with pre-administration", "setting": "FK506 eye drop 0.06%", "value": 65.52, "unit": "%"}, {"measurement": "improvement (%) of group with pre-administration", "setting": "FK506 eye drop 0.1%", "value": 72.41, "unit": "%"}, {"measurement": "improvement (%) of group without pre-administration", "setting": "FK506 eye drop (suspension) 0.03%", "value": 25.93, "unit": "%"}, {"measurement": "improvement (%) of group without pre-administration", "setting": "FK506 eye drop (suspension) 0.06%", "value": 40.00, "unit": "%"}, {"measurement": "improvement (%) of group without pre-administration", "setting": "FK506 eye drop (suspension) 0.1%", "value": 56.67, "unit": "%"}, {"measurement": "improvement effect on the itchiness by setting a leading period for pre-administration", "setting": "with versus without pre-administration, all concentrations", "value": "strikingly enhanced"}]}]}
